The test system of data set [1] is MCF-7 (breast adenocarcinoma). The experiment in a line: Calcein AM cytotoxicity assay, MCF7. It counts as cell-based. The settings on record: MCF7, 3-day Calcein-AM assay; read-out: Cytotoxic activity IC50. The text has this:
(§1) Because toxic compounds negatively influence metabolic processes of cells, many standard cytotoxicity assays are based on measurement of metabolisation rate of various artificial substrates. Resulting product is then quantified, for example, by means of spectrometry. The assays can be easily modified for use in 96-well plates. For evaluation of cytotoxicity of the […] of this invention, a microtiter assay based on quantification of metabolisation of Calcein AM was used. The assay is widely used in drug screening programs and in chemosensitivity testing. In live cells, Calcein AM is enzymatically hydrolysed and accumulation of the resulting calcein is manifested by green fluorescence. […]
(§2) Approximately 10,000 cells in 80 μL of medium were seeded into 96-well microtitre plates. […] The fluorescence of free calcein was then quantified using a Fluoroscan Ascent fluorometer (Microsystems), and the percentage of surviving cells in each well was calculated by dividing the OD obtained from each cell with exposed cells by the mean OD obtained from control wells×100%. […]

The test system of the next data set is HOS (human osteosarcoma). In words: Calcein AM cytotoxicity assay, HOS. The settings on record: 3-day Calcein-AM assay, read-out: Cytotoxic activity IC50. In kind it is cell-based.
Excerpt: as §1, §2

For data set [2] the following is noted: water; reported value; cited from earlier work.
The subject of data set [3] is HL-60 (promyelocytic leukaemia). In words: Calcein AM cytotoxicity assay, HL60. In kind it is cell-based. The settings on record: HL60, 3-day Calcein-AM assay; read-out: Cytotoxic activity IC50.
Excerpt: as §1, §2

The nature of data set [4]: Calcein AM cytotoxicity assay, MCF7. It counts as cell-based. The settings on record: human, MCF-7 cells (breast adenocarcinoma); MCF7, 3-day Calcein-AM assay; read-out: Cytotoxic activity IC50.
Excerpt: as §1, §2

Data set [5] in a line: Calcein AM cytotoxicity assay, HOS. It counts as cell-based, human. The settings on record: human, HOS cells (osteosarcoma), 3-day Calcein-AM assay, read-out: Cytotoxic activity IC50.
Excerpt: as §1, §2

A short description of data set [6]: Pharmacokinetics / bioavailability upon intraduodenal administration in rats. The note with it: rat. It counts as in vivo, male Sprague-Dawley rats. The protocol:
Preparation of Dosing Solutions for In-Vivo Study: Para-topolin and para-topolin mesylate salt were stored at room temperature under desiccant and protected from light. The dosing solutions were prepared fresh from powders on the day of dosing. The dosing solution for intravenous administration (IV) was prepared at 1 mg/mL (free acid) in 50:50 DMSO: saline. The dosing solution for intraduodenal administration (ID) was prepared at 2 mg/mL in a 0.2% sodium carboxymethyl cellulose (Na CMC) aqueous solution.
Administration to Animals: The pharmacokinetics of para-topolin base and mesylate was evaluated in fasted male Sprague-Dawley rats. […]
Each blood sample was collected from the rats via a jugular vein cannula and placed into chilled polypropylene tubes containing sodium heparin as an anticoagulant. […] The total concentration of para-topolin in plasma samples were analyzed by LC-MS/MS after an overnight incubation with glucuronidase/arylsulfatase enzyme mixture. Pharmacokinetic parameters were calculated using the WinNonlin software.
Analysis of Plasma Samples: An LC-MS/MS analytical method for the determination of […] in rat plasma was developed (Novák et al., Phytochemistry, 69, 2008:2214-2224). Prior to sample analysis, a standard curve was analyzed to determine the specificity, range, and linearity of the method. […]

The nature of the next data set: Disproportionation study. The note with it: 50 mg in 1 ml distilled water, ca. 48 hours, recrystallized. It counts as physicochemical. As to the method: A 50 mg sample of crystalline para-topolin mesylate salt was dissolved in 1 ml of distilled water, kept in solution for ca. 48 hours and then crystallized and checked by XRPD for disproportionation.
The nature of data set [7]: Calcein AM cytotoxicity assay, HL60. It counts as cell-based. The note with it: human, HL-60 cells (promyelocytic leukaemia); HL60, 3-day Calcein-AM assay; read-out: Cytotoxic activity IC50.
Excerpt: as §1, §2

Structures can show the parent of a compound that is named as a salt.

Regarding `Oc1ccc(CNc2ncnc3nc[nH]c23)cc1` [para-topolin, 6-(4-Hydroxybenzylamino) purine], the IC50 (in data set [1]; in the data set on HOS (human osteosarcoma); in data set [3]) was above 167 µM each time. Also, the “aqueous solubility (reported)” value in data set [2] was below 40 µg/mL.
In the case of `Oc1ccc(CNc2ncnc3nc[nH]c23)cc1` [para-topolin mesylate, 6-(4-hydroxybenzylamino) purine (para-topolin) mesylate (methylsulphonate)], the IC50 at 72 h in [4], in data set [5] and in data set [7] was above 167 µM in each case. Besides, in data set [6], the “time after ID dosing at which Cmax was observed” value is at most 15 min. Further, the “Disproportionation (XRPD)” value in “Disproportionation study” is “No signs of disproportionation”.

Values taken from patent publication US12378247B2, “Mesylate salt of para-topolin, compositions containing said salt and use thereof” (USTAV EXPERIMENTALNI BOTANIKY AV CR, V. V. I., priority 2020, dated 2025).
